Assay [1] addresses T1, BuChE (equine serum) (Equus caballus, UniProt P81908).
T1 construct: gene BCHE
Put plainly: Ellman assay, 96-well, […] nm. The format is biochemical. For orientation: In Ellman's method for cholinesterases, released thiocholine reacts with DTNB.

In assay [2] the target is AChE (electric eel) (Electrophorus electricus, UniProt O42275). Put plainly: Ellman assay, 96-well, […] nm. It counts as biochemical.

Read-outs that look alike come from different tables or passages of the source.

Sequence of AChE (electric eel) (O42275 24-633): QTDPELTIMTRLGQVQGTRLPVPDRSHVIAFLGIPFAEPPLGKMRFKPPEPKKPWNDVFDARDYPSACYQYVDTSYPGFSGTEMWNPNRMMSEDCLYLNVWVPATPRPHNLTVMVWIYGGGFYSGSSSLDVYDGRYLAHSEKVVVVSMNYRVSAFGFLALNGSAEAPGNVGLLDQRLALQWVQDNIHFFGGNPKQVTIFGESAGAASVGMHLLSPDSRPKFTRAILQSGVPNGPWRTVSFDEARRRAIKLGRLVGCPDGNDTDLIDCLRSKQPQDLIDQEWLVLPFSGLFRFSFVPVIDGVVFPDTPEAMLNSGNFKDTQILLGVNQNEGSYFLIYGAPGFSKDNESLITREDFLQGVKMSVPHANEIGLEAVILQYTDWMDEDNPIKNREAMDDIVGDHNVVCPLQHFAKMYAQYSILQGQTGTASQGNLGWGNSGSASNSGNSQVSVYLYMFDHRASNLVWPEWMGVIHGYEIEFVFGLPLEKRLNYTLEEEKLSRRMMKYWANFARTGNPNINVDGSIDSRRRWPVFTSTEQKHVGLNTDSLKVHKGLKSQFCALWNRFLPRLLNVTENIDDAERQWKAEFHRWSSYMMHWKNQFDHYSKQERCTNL
T1 sequence (P81908 whole entry): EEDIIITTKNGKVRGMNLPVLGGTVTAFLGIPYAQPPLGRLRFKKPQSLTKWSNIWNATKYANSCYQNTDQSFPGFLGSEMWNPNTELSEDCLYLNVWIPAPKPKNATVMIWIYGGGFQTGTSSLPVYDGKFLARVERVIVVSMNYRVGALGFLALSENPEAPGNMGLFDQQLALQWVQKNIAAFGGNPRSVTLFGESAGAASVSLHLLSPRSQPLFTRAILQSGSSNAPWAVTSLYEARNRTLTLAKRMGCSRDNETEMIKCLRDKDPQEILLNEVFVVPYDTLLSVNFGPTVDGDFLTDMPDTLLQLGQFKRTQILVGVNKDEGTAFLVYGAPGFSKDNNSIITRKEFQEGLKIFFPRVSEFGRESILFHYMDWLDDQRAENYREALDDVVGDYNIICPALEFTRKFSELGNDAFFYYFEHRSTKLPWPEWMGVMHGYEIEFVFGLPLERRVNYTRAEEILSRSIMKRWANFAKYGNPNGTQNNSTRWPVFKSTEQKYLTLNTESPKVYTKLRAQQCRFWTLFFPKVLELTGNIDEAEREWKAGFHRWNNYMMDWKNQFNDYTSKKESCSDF

One may read the IC50 as the midpoint of a concentration-inhibition curve. For `CCOC(=O)Nc1ccc(C(=O)OCC(O)CN(CC)CC)cc1` (stereo not drawn) [5f, (3-{4-[(Ethoxycarbonyl)amino]benzoyloxy}-2-hydroxypropyl)diethylammonium chloride], the half-maximal inhibitory concentration (IC50) in assay [1] and in assay [2] was above 100 µM each time.

Take `CCOC(=O)Nc1ccc(C(=O)OCC(O)C[N+](C)(C)C)cc1` (stereo not drawn) [6d, (3-{4-[(Ethoxycarbonyl)amino]benzoyloxy}-2-hydroxypropyl)trimethylammonium iodide]: the IC50 in assay [1] and in assay [2] (read-out: AChE IC50) was above 100 µM throughout.

As to `CCCOC(=O)Nc1ccc(C(=O)OCC(O)CN(C)C)cc1` (stereo not drawn) [5c, (2-Hydroxy-3-{4-[(propoxycarbonyl)amino]benzoyloxy}propyl)dimethylammonium chloride], the 50% inhibitory concentration (IC50) in assay [1] and in assay [2] (read-out: AChE IC50) was above 100 µM in each case.

For the compound `CCOC(=O)Nc1ccc(C(=O)OCC(O)CN(C)C)cc1` (stereo not drawn) [5b, (3-{4-[(ethoxycarbonyl)amino]benzoyloxy}-2-hydroxypropyl)dimethylammonium chloride], the concentration for half-maximal inhibition (IC50) in assay [1] and in assay [2] was above 100 µM each time.

`CCCCOC(=O)Nc1ccc(C(=O)OCC(O)C[N+](C)(C)C)cc1` (stereo not drawn) [6i, (3-{4-[(Butoxycarbonyl)amino]benzoyloxy}-2-hydroxypropyl)trimethylammonium iodide]: the IC50 in assay [1] and in assay [2] was above 100 µM in each case.

As to `CCN(CC)CC(O)COC(=O)c1ccc(NC(=O)OC)cc1` (stereo not drawn) [5e, Diethyl-(2-hydroxy-3-{4-[(methoxycarbonyl)amino]benzoyloxy}propyl)ammonium chloride], the concentration for half-maximal inhibition (IC50) in assay [1] and in assay [2] (read-out: AChE IC50) was above 100 µM in each case.

For `CC[N+](C)(C)CC(O)COC(=O)c1ccc(NC(=O)OC)cc1` (stereo not drawn) [6b, Ethyl(2-hydroxy-3-{4-[(methoxycarbonyl)amino]benzoyloxy}propyl)dimethylammonium iodide], the results for the half-inhibitory concentration (IC50) in assay [1] and in assay [2] (read-out: AChE IC50) were above 100 µM and 100 µM, respectively.

Regarding `CCCOC(=O)Nc1ccc(C(=O)OCC(O)C[N+](C)(CC)CC)cc1` (stereo not drawn) [6h, Diethyl (2-hydroxy-3-{4-[(propoxycarbonyl)amino]benzoyloxy}propyl)methylammonium iodide], the IC50 in assay [1] is above 100 µM; in assay [2] it was 58 µM.

For the compound `CCOC(=O)Nc1ccc(C(=O)OCC(O)C[N+](C)(C)CC)cc1` (stereo not drawn) [6e, (3-{4-[(Ethoxycarbonyl)amino]benzoyloxy}-2-hydroxypropyl)(ethyl)dimethylammonium iodide], the IC50 in assay [1] and in assay [2] was above 100 µM throughout.

Consider `COC(=O)Nc1ccc(C(=O)OCC(O)C[N+](C)(C)C(C)C)cc1` (stereo not drawn) [6c, (2-Hydroxy-3-{4-[(methoxycarbonyl)amino]benzoyloxy}propyl)dimethyl(propan-2-yl)ammonium iodide], for which the half-inhibitory concentration (IC50) in assay [1] and in assay [2] was above 100 µM each time.

In the case of `COC(=O)Nc1ccc(C(=O)OCC(O)C[N+](C)(C)C)cc1` (stereo not drawn) [6a, (2-Hydroxy-3-{4-[(methoxycarbonyl)amino]benzoyloxy}propyl)trimethylammonium iodide], the IC50 in assay [1] and in assay [2] was above 100 µM in each case.

For `CCCCOC(=O)Nc1ccc(C(=O)OCC(O)CN(C)C)cc1` (stereo not drawn) [5d, (3-{4-[(Butoxycarbonyl)amino]benzoyloxy}-2-hydroxypropyl)dimethylammonium chloride], the 50% inhibitory concentration (IC50) in assay [1] and in assay [2] (read-out: AChE IC50) was above 100 µM throughout.

In the case of `CCCOC(=O)Nc1ccc(C(=O)OCC(O)C[N+](C)(C)C)cc1` (stereo not drawn) [6g, (2-Hydroxy-3-{4-[(propoxycarbonyl)amino]benzoyloxy}propyl)trimethylammonium iodide], the IC50 in assay [1] and in assay [2] (read-out: AChE IC50) was above 100 µM in each case.

As to `COC(=O)Nc1ccc(C(=O)OCC(O)CN(C)C)cc1` (stereo not drawn) [5a, (2-Hydroxy-3-{4-[(methoxycarbonyl)amino]benzoyloxy}propyl)dimethylammonium chloride], the IC50 in assay [1] and in assay [2] was above 100 µM throughout.

As for `CCOC(=O)Nc1ccc(C(=O)OCC(O)C[N+](C)(CC)CC)cc1` (stereo not drawn) [6f, (3-{4-[(Ethoxycarbonyl)amino]benzoyloxy}-2-hydroxypropyl)diethylmethylammonium iodide], the half-inhibitory concentration (IC50) in assay [1] is above 100 µM; in assay [2] (read-out: AChE IC50) it was 56 µM.

Source of the values: PMC6149889, “Synthesis, Analysis, Cholinesterase-Inhibiting Activity and Molecular Modelling Studies of 3-(Dialkylamino)-2-hydroxypropyl 4-[(Alkoxy-carbonyl)amino]benzoates and Their Quaternary Ammonium Salts” (Molecules : A Journal of Synthetic Chemistry and Natural …, 2017).
